Read-outs that look alike come from different tables or passages of the source.

We go through 15 compounds from patent US4552888A, “Ascorbic acid ethers in angiogene” (Eli Lilly and Company, priority 1983, dated 1985).

Data set [1] deals with paw swelling caused by Type II collagen. Put plainly: Collagen arthritis assay (type II collagen-induced paw swelling). The class given is in vivo, inbred Lewis male rats. The note with it: for decrease in paw swelling caused by collagen Type II injection: 15 mg./kg. per os. The protocol:
This test method is a collagen arthritis assay carried out as follows. Type II collagen is isolated from bovine articular cartilage by the method of […] and Nimni [Biochemistry, 10, 3905, (1971)]. The collagen is dissolved in 0.1M acetic acid and stored at -20°. Type II collagen solution is diluted to 2 mg./ml. concentration and emulsified thoroughly with an equal volume of incomplete Freund's adjuvant (ICFA). The emulsion containing approximately 0.5 mg. of collagen is injected intradermally to groups of 6 inbred Lewis male rats (Charles River Breeders; 170-200 g.) at various sites in the dorsal area. The hindpaw volumes of each rat is measured and recorded three times a week throughout the test period to assess the inflammatory reaction. The animals receive compounds under test as suspensions in carboxymethylcellulose vehicle, by oral gavage, 5 days per week (Mon.-Fri.). At the end of the test (day 28 or 30), the blood of these animals is drawn by cardiac puncture and the serum anti-type II collagen antibody levels are estimated by passive hemagglutination technique, using glutaraldehyde treated sheep red cells, to which type II collagen is conjugated [[…] et al., Immunochemistry, 6, 67,1969); Andriopoulos et al., Arth. Rheum., 19, 613, (1976)]. The cellular response or delayed-type hypersensitivity response to type II collagen is measured by the radiometric ear index assay (Kostiala, Immunology, 33, 561, 1977). In certain experiments, the bone damage occurring because of immunization with type II collagen and the effects of drugs are determined from the radiographs of the hindpaws of two or three representative animals from each group. Injections of ICFAs alone were employed to some rats as a negative control.

The test system of another data set is angiogenesis factor. Put plainly: Inhibition of angiogenesis factor (3683 Morris hepatoma lysosomal-mitochondrial pellet) induced serpentine vessels in mice. The class given is in vivo, mice (SPF/ND4 female). Particulars: Mus musculus, ip; for inhibition in vivo at 25 mg/kg: i.p., 24 hours. The protocol: Lysosomal-mitochondrial pellets containing angiogenesis factor are prepared from 3683 Morris hepatoma. The pellet is diluted with 7-8 ml. of 15% ficoll. With this dilution, 8-10 serpentine vessels will be produced per 0.2 cc. injection as described below for the control group.
Next, 15 SPF/ND4 female mice weighing 20-22 g. are shaved on the left side and then divided into three groups of five each. One group (drug group) is injected subcutaneously and laterally with 0.20 cc. of the lysosomal-mitochondrial preparation diluted with 15% ficoll. This group of mice is then dosed individually by the intraperitoneal route with 0.5 cc. of a solution or suspension in a standard vehicle containing the compound under test, usually at an initial dose level of 300 mg./kg. If this dose level is toxic, two-fold dilutions are made until all mice survive a single dose. The second group of mice (control group) is injected subcutaneously and laterally with 0.2 cc. of the lysosomal-mitochondrial suspension diluted with 15% ficoll and dosed intraperitoneally with 0.5 cc. of the vehicle alone. The third group (negative control) is injected with ficoll solution only (no treatment with drug or vehicle). The mice are sacrificed after 24 hours. Each mouse is placed on its side on a dissecting board with the shaved side up. Starting at the flank, the skin is cut straight to the back of the animal. A similar cut is made behind the front leg. Then the skin is cut along the back making a flap of about one inch by two inches. The skin is carefully separated from the connective tissue using forceps and a scalpel. The skin flap is then laid back exposing the lysosomal-mitochondrial implant which is attached to the skin. The skin flap is gently flattened out and with the use of a binocular dissecting scope, serpentine vessels are observed around the lysosomal-mitochondrial implant and their number counted. All observations of the number of serpentine vessels are made at the same power of the microscope (1X). The average number of serpentine vessels for each group is calculated. The percent inhibition is then calculated according to the following equation. [formula] where sv=average number of serpentine vessels.
If the negative control group described above has any serpentine vessels, the test is invalid due to contamination of the ficoll solution.
Table I covers compounds according to formula I above in which R^2 and R^3 are both H, table II covers compounds in which R^2 and R^3 form a 1-methylethylidene group, and Table III compounds in which R^2 plus R^3 equal a benzylidene group or other group.
One of the compounds of this invention, 3-O-n-octadecyl-5,6-O-(1-methylethylidene)-L-ascorbic acid was tested at a series of dose levels for its ability to inhibit tumor angiogenesis and the results of these tests are set forth in Table IV.

The nature of a further data set: pKa by titration. Type of data set: physicochemical. Particulars: for pKa: read-out: pKa.
In another data set the test system is Vitamin C activity. Particulars: orally in aqueous solution; Bezssonoff and Sacrez 1937; cited from earlier work.
Another data set has as its system Morris hepatoma (5123D). Put plainly: Growth/induction of transplanted Morris hepatoma (5123D) in ICFA-treated rats. Type of data set: in vivo. Particulars: 10-100 mg. once or twice a day orally. How it is done: Another laboratory test involving angiogenesis or neovascularization is based on the time period required for a differentiated tumor to become undifferentiated (vascularized). An inflammatory response enhances tumor growth and reduces the lag phase. In this test, rats are injected with a test drug (30 minutes prior to dosing) with ICFA (incomplete Freund's adjuvant) plus India ink intradermally in a shaved area on a rat's back, thus providing a marked injection site. After 3 days of twice daily administration of the test drug followed 30 minutes later by administration of ICFA, the tumor is transplanted on the periphery of the marked injection site. The animals are weighed and the tumor size determined (length+width/2) at weekly intervals for 4 weeks. Morris hepatoma (5123D) was used as the […] tumor.
0.5 cc. of ICFA were also given once or twice daily subcutaneously to each test rat.

The test system of data set [2] is Madison (M109) lung carcinoma. Put plainly: Madison lung metastasis assay. Type of data set: in vivo, male BALB/C mice. The protocol:
In addition, the compounds of this invention have found utility as angiogenesis inhibitors in metastatis formation. Such activity has been found in an artificial metastasis model using Madison lung (M 109) carcinoma which metastasizes preferentially to lungs and is not overly sensitive to chemotherapeutic agents. The test is carried out as follows.
The Madison (M109) lung carcinoma is carried as a transplantable line in syngeneic BALB/C mice. This tumor line was obtained from the tumor bank at Mason Research Institute, Worcester, Mass. For tumor metastasis studies, a subcutaneously-grown tumor is aseptically excised, minced into small pieces with a scissors, and gently trypsinized at room temperature to obtain a single cell suspension. The cells are suspended in RPMI-1640 medium (M. A. Bioproducts, Walkersville, MD). Viable M109 cells are determined by trypan blue exclusion, and the cell concentration is determined with a hemocytometer. The cells are adjusted to 1×10^5 viable cells/ml. of medium. M109 cells are injected i.v. into normal, male BALB/C mice. Inoculum volume per mouse is 0.2 ml. (2×10^4 cells). Drugs are administered i.p. to randomized groups of 10 mice 2 days prior to tumor cell inoculation. Controls receive mock injections of 0.5 ml. buffer. Daily mortality is monitored, and median survival times are determined for each group. Cytoxan was employed as a positive control. In the Table, column 1 gives drug treatment and columns 2 and 3 measures number of lesions±standard error per lung on days 30 and 42.
The growth rate and number of lung metastases in the above experiment were less than usual. A new transplant line was employed in a second determination with lung lesions developing earlier. Table 6 records the results of this experiment; here ascorbic acid was employed as the control drug.

Where [3] appears, read: 24 h, Table 1, read-out: average % inhibition (serpentine vessels).
Setting [4] is: oral 50 mg./kg., one experiment.
The mark [5] stands for this setting: Table 6, 16 day, new transplant line, 100 mg./kg., Emulphor control 69.8 ± 10.4.

Consider `CC1(C)OC[C@@H]([C@H]2OC(=O)C(OCc3ccc(C#N)cc3)=C2OCc2ccc(C#N)cc2)O1` [2,3-bis(O-4-cyanobenzyl)-5,6-O-(1-methylethylidene)-L-ascorbic acid], for which the “decrease in paw swelling caused by collagen Type II injection” value (shortened to “decrease in paw swelling caused”) in data set [1] is “substantial decreases in paw swelling”. Further, in the data set with angiogenesis factor (24 h, Table 2, read-out: % inhibition (serpentine vessels)), the inhibition in vivo at 25 mg/kg lay within 36 to 91%. Also, the titratable group result in “pKa by titration” is reported as “No titratable groups”.

Take `CCCCCCCCCCCCCCCCCCOC1=C(OCCCCCCCCCCCCCCCCCC)[C@@H]([C@@H](O)CO)OC1=O` [2,3-di-(-O-n-octadecyl)-L-ascorbic acid]: the “decrease of paw volumes” value in data set [1] (12.5 and 25 mg./kg.) is 33-67%. Further, the inhibition in vivo at 25 mg/kg in the data set with angiogenesis factor (setting [3]) was 52%.

Regarding `COC1=C(OC)C(C(O)CO)OC1=O` (stereo not shown) [2,3-dimethylascorbic acid], the “Vitamin C activity” value in the data set on Vitamin C activity is listed as “devoid of Vitamin C activity”.

Turning to `O=C1O[C@H]([C@@H](O)CO)C(OCc2cccc(C(F)(F)F)c2)=C1O` [3-O-(3-trifluoromethylbenzyl)-L-ascorbic acid], the “paw volumes vs ICFA controls” value in data set [1] (25 mg./kg.) is recorded as “substantially the same as ICFA controls”.

Turning to `CC1(C)OC[C@@H]([C@H]2OC(=O)C(O)=C2OCCCCC#N)O1` [3-O-(4-cyanobutyl)-5,6-O-(1-methylethylidene)-L-ascorbic acid], the “decrease in paw swelling caused” value in data set [1] was “substantial decreases in paw swelling”. In addition, the pKa (usually the pH at which an ionisable group is half protonated) in the data set “pKa by titration” amounted to 10.4.

With `CC1(C)OC[C@@H]([C@H]2OC(=O)C(O)=C2OCc2ccc([N+](=O)[O-])cc2)O1` [3-O-(4-nitrobenzyl)-5,6-O-(1-methylethylidene)-L-ascorbic acid], the inhibition in vivo at 150 mg/kg in the data set on angiogenesis factor (24 h, Table 2) was 42 to 85%. Also, in “pKa by titration”, the pKa was determined as 10.1.

`CC1(C)OC[C@@H]([C@H]2OC(=O)C(O)=C2OCCCCCCCCCCCO)O1` [3-O-(11-hydroxyundecyl)-5,6-O-(1-methylethylidene)-L-ascorbic acid]: the inhibition in vivo at 150 mg/kg with angiogenesis factor (24 h, Table 2) amounted to 67%. The pKa in “pKa by titration” worked out at 10.8.

Regarding `CCCCCCCCCCCCCCCCCOC1=C(O)C(=O)O[C@@H]1[C@@H](O)CO` [3-O-n-heptadecyl-L-ascorbic acid], the “decrease in paw swelling caused” value in data set [1] is “substantial decreases in paw swelling”.

As for `CCCCCCCCCCCCCCCCOC1=C(O)C(=O)O[C@@H]1[C@@H](O)CO` [3-O-n-hexadecyl)-L-ascorbic acid], in the data set on angiogenesis factor (setting [3]), the inhibition in vivo at 25 mg/kg was found to be 31%. Besides, in the data set “pKa by titration”, the pKa worked out at 11.1.

`CCCCCCCCCCCCCCCCCCOC1=C(O)C(=O)O[C@@H]1[C@@H]1COC(C)(C)O1` [3-O-n-octadecyl-5,6-O-(1-methylethylidene)-L-ascorbic acid]: in data set [1] (50 mg./kg., other runs), the “paw volumes vs negative control levels” value is reported as “indistinguishable from negative control levels”. Besides, in data set [1] (setting [4]), the “inhibition of the swelling of the paw” value is “about 50%”. In the data set on angiogenesis factor (Table 4, intraperitoneal dose 30 mg./kg., individual results), this compound registered an inhibition in vivo at 30 mg/kg of 58%. This compound came in with an inhibition in vivo at 120 mg/kg in the data set on angiogenesis factor (Table 4, intraperitoneal dose 120 mg./kg., individual results) of 66%. In addition, the inhibition in vivo at 240 mg/kg with angiogenesis factor (Table 4, intraperitoneal dose 240 mg./kg., individual results) worked out at 71%. Further, in the data set “pKa by titration”, the pKa was determined as 11.4.

In the case of `CCCCCCCCCCCCCCCCCCOC1=C(O)C(=O)O[C@@H]1[C@@H](O)CO` [3-O-n-octadecyl-L-ascorbic acid], the “decrease of paw volumes” value in data set [1] (12.5 mg./kg.) is listed as “about 25%”. The “paw volumes vs controls” value in data set [1] (17.5 mg./kg.) is reported as “indistinguishable from controls”. In addition, the “decrease of paw volume vs positive controls (collagen, no drug)” value in data set [1] (50 mg./kg., other runs) is listed as 90-100%. Further, the “paw volumes vs ICFA-treated rats (negative controls)” value in data set [1] (setting [4]) is on record as “not substantially different from those of the ICFA-treated rats”. Moreover, the “growth of the undifferentiated tumor” value with Morris hepatoma (5123D) (alternative outcome to delayed induction) is reported as “inhibited the growth of the undifferentiated tumor”. In addition, the “delay of tumor induction” value in the data set on Morris hepatoma (5123D) (alternative outcome to growth inhibition) fell in the range of 4 to 7 days. For the same compound, the “Mean No. of Lesions ± S.E./Lung” value is on record as 1.8 ± 1.2 Lesions/Lung in data set [2] (Table 5, Day 30, 35 mg./kg. i.p., Emulphor control 15.8 ± 4.6); 18.6 ± 1.3 Lesions/Lung in data set [2] (Table 5, Day 42, 35 mg./kg. i.p., Emulphor control 20.6 ± 1.8); 10.7 ± 3.4 Lesions/Lung in data set [2] (Table 6, 16 day, new transplant line, 30 mg./kg., Emulphor control 69.8 ± 10.4); 13.0 ± 5.1 Lesions/Lung in data set [2] (setting [5]).

As to `CC1(C)OC[C@@H]([C@H]2OC(=O)C(O)=C2O)O1` [5,6-O-(1-methylethylidene)-L-ascorbic acid], the inhibition in vivo at 10 mg/kg with angiogenesis factor (24 h, Table 2, dose 10 mg./kg.) stood at 48%. In “pKa by titration”, the pKa is 6.1.

`CCCCCCCCCCC1(C)OC[C@@H]([C@H]2OC(=O)C(O)=C2O)O1` (stereo partly drawn) [5,6-O-(1-n-decylethylidene)-L-ascorbic acid]: the “decrease in paw swelling caused” value in data set [1] is on record as “substantial decreases in paw swelling”.

Regarding `O=P1(N(CCCl)CCCl)NCCCO1` (stereo not shown) [Cytoxan, reference compound], the “Mean No. of Lesions ± S.E./Lung” value in data set [2] (Table 5, Day 30, 30 mg./kg. i.p. every 4th day starting on day 12, Emulphor control 15.8 ± 4.6) is listed as 8.4 ± 1.5 Lesions/Lung.

With `O=C1O[C@H]([C@@H](O)CO)C(O)=C1O` [ascorbic acid], in data set [2] (setting [5]), the “Mean No. of Lesions ± S.E./Lung” value is 33.8 ± 9.6 Lesions/Lung.
